What is called kinetic solubility is solubility judged after dilution from a stock solution rather than from solid.

SMILES strings stand for the structures. ≈ marks a conversion by molar mass, not a printed value.

For the data set the following is noted: buffer; pH 7.4; 200.0 µM.
In turn, `COc1ccc(C(=O)NC(C)c2ccc(-n3ccnc3)cc2)c(OC)c1` (stereo not given) displayed a solubility (kinetic) of over 52.7 µg/mL.
Molecule `CCOC(=O)CNC(=O)C1c2ccccc2Oc2ccccc21` displayed a kinetic solubility of 1.9 µg/mL (≈ 6.1 µM).
`Cc1ccc(NC(=O)CN2C(=O)c3ccccc3S2(=O)=O)c(C)c1` came in with a solubility (kinetic) of 2.7 µg/mL (≈ 7.84 µM).
For `Cc1cc(N2CCNCC2)nc2ccccc12` the value was 33.3 µg/mL (≈ 146 µM); for `O=C(COC(=O)CNC(=O)c1ccccc1)NC(=O)NC1CCCCC1`, over 54.2 µg/mL.
As for `O=C(NC1CCCCCC1)c1cc2ccccc2oc1=O`, the solubility (kinetic) worked out at 3.4 µg/mL (≈ 11.9 µM).
With `Cc1sc2nc(SCC(=O)Nc3cccc(S(N)(=O)=O)c3)[nH]c(=O)c2c1C` the figure was 6 µg/mL (≈ 14.1 µM).
For the molecule `CSc1ncccc1C(=O)OCc1cccc([N+](=O)[O-])c1`, the solubility (kinetic) was under 0.3 µg/mL.
Turning to `CCc1ccc(N2CN(Cc3cccnc3)CNC2=S)cc1`, the kinetic solubility was over 46.9 µg/mL.
The molecule `Cc1c(C(=O)Oc2ccc(Cl)cc2)n(C)oc1=O` showed a solubility (kinetic) of 37 µg/mL (≈ 138 µM).
For the molecule `CC(Cc1ccccc1)NC(=O)Cc1ccc([N+](=O)[O-])cc1` (stereo not given), the kinetic solubility was 22.6 µg/mL (≈ 75.8 µM).
Take `CC(OC(=O)CCOc1ccccc1)C(=O)NC1CC1` (stereo not given): the kinetic solubility is over 41.6 µg/mL.
`C/C(=N/OC(=O)c1ccc(C(F)(F)F)cc1)c1oc(C)nc1C` displayed a solubility (kinetic) of 8.1 µg/mL (≈ 24.8 µM).
For `O=C(Nc1nc(-c2ccccn2)cs1)Nc1ccc(F)cc1F` the value was 2.4 µg/mL (≈ 7.22 µM).
For `CCN(CC)CCCNC(=O)Cn1ccc2ccccc2c1=O` the value was over 47.3 µg/mL; for `CCOc1ccccc1NC(=O)NCc1ccco1`, 9.8 µg/mL (≈ 37.6 µM).
For `O=C(Nc1ccc(F)cc1)c1cccnc1` the value was over 32.4 µg/mL; for `O=C1c2cccc3cccc(c23)C(=O)N1c1ccccn1`, 40.4 µg/mL (≈ 147 µM).
`O=C(CSc1nncs1)Nc1nccs1`: the solubility (kinetic) was over 38.7 µg/mL.
For `Cc1ccc(C)c(NC(=O)N2CCCCCC2)c1` the value was over 37 µg/mL; for `O=C(Nc1ccc2c(c1)OCO2)C1CC(=O)N(c2ccccc2)C1` (stereo not given), 3.3 µg/mL (≈ 10.2 µM).
In turn, `COc1ccc2c(c1)c(CC[NH3+])c(C)n2Cc1ccccc1.[Cl-]` gave a kinetic solubility of 44.5 µg/mL.
Take `O=C(CSc1nncc2ccccc12)Nc1ccccc1`: the solubility (kinetic) is over 44.3 µg/mL.
For `CCCC(=O)NC(=S)c1c(C)n(C)n(-c2ccccc2)c1=O` the value was over 47.6 µg/mL.
With `COc1ccc(NS(=O)(=O)c2ccc(N3CCCCC3)c(NC(=O)C(C)NC(N)=O)c2)cc1` (stereo not given) the figure was over 71.3 µg/mL; with `CCOc1ccc(S(=O)(=O)NCc2cccnc2)cc1C(C)C`, over 50.2 µg/mL.
For `COc1cccc(OC)c1C(=O)Nc1cccc(S(=O)(=O)Nc2ccccc2Cl)c1` the value was 47.1 µg/mL (≈ 105 µM).
In turn, `CC(OC(=O)C1=COCCO1)C(=O)Nc1ccc(Cl)cn1` (stereo not given) came in with a kinetic solubility of over 46.9 µg/mL.
With `COc1ccc(Br)cc1CN1CCN(c2ncccn2)CC1` the figure was 38.8 µg/mL (≈ 107 µM).
With `COc1cccc(CNCCc2c[nH]c3ccccc23)c1OC.Cl` the figure was over 52 µg/mL; with `O=C(Nc1cccc2ccccc12)c1ccccc1Cl`, 1.7 µg/mL (≈ 6.03 µM); with `CC(=O)Nc1ccc(S(=O)(=O)N[C@@H](C)C(=O)OCC(=O)c2ccc(C)cc2)cc1`, 37.7 µg/mL (≈ 90.1 µM).
For `CCCCc1ccc(NC(=O)C2CCCC2)cc1` the value was 1.9 µg/mL (≈ 7.74 µM).
`CC(=O)O.CN1CCCC(CN2c3ccccc3Sc3ccccc32)C1` (stereo not given) showed a kinetic solubility of over 55.6 µg/mL.
For `Nc1ccc(SC(F)(F)F)cc1` the value was 6 µg/mL (≈ 31.1 µM); for `Cc1c(C(=O)c2ccc(Br)cc2)c(=O)n(C)c(=O)n1C`, 50.1 µg/mL (≈ 149 µM); for `C[n+]1cccc2cccc([O-])c21.O`, 25.2 µg/mL.
`CCc1ccccc1NC(=O)c1cc(-c2cccs2)on1`: the solubility (kinetic) is 0.8 µg/mL (≈ 2.68 µM).
With `Cn1c(=O)c2c(ncn2CCOc2ccc(F)cc2)n(C)c1=O` the figure was 13.9 µg/mL (≈ 43.7 µM); with `O=c1oc2ccc(Cl)cc2nc1/C=C(\O)c1cccs1`, 20.9 µg/mL (≈ 68.4 µM); with `COc1cc(S(=O)(=O)Nc2cccnc2)ccc1Cl`, over 44.8 µg/mL.
With `CC(=O)Nc1cccc(NC(=O)c2csc(C)c2)c1`, the solubility (kinetic) was over 41.2 µg/mL.
For `COc1ccc(C)cc1Nc1nc(N)c2ccccc2n1.Cl` the value was 47.1 µg/mL; for `Cc1cc(OCC(=O)Nc2ccccc2C)no1`, over 36.9 µg/mL.
With `Cc1cc2c(SCC(=O)NCC3CCCO3)ncnc2s1` (stereo not given) the figure was over 48.5 µg/mL; with `Clc1ccc(OCc2noc(-c3ccsc3)n2)c(Cl)c1`, under 0.4 µg/mL; with `CC(C)(C)NC(=O)CSc1nc2ccccc2c(=O)[nH]1`, 30.9 µg/mL (≈ 106 µM).
`CCOC(=O)C[N+]1(C)CCN(C(C)=O)CC1.[Br-]` displayed a solubility (kinetic) of over 46.4 µg/mL.
For `Cc1ccc(Sc2ccc(S(=O)(=O)Nc3ccc(C(=O)O)cc3)cc2)cc1C` the value was over 62 µg/mL.
For `Cc1ccccc1S(=O)(=O)Nc1ncnc2sccc12` the value was over 45.8 µg/mL; for `COc1ccccc1OCCC(=O)OCC(=O)NCc1ccc(F)cc1`, 23.5 µg/mL (≈ 65 µM).
Molecule `Cc1ccc(OCC(=O)NCCNC(=O)c2ccncc2)cc1C` yielded a solubility (kinetic) of over 49.1 µg/mL.
`c1ccc(-c2ncc3ccccn23)cc1`: the solubility (kinetic) is 19.1 µg/mL (≈ 98.3 µM).
For `COc1ccccc1-c1cc(C(=O)N2CCOCC2)no1`, the kinetic solubility was over 43.2 µg/mL.
Molecule `O=C(NCc1ccccc1)c1ccc(=O)oc1` displayed a kinetic solubility of over 34.4 µg/mL.
For `Cc1cccc(NC(=O)COC(=O)CC2CCCC2)c1C` the value was over 43.4 µg/mL.
With `COc1ccc(OC)c(NC(=O)CC(NC(C)=O)c2ccccc2)c1` (stereo not given) the figure was 45.3 µg/mL (≈ 132 µM); with `O=C(Nc1ccc(Cl)cn1)c1ccc2nccnc2c1`, 3.6 µg/mL (≈ 12.6 µM).
`Cc1cc(C)c(C(=O)/C=C/c2cccs2)c(=O)[nH]1`: the kinetic solubility was 34.4 µg/mL (≈ 133 µM).
With `Cn1cccc1C(=O)OCC(=O)NCc1ccc2c(c1)OCO2` the figure was over 47.4 µg/mL.
Molecule `C=CCn1c2[n+](c3ccccc3c1=O)CCCCC2.[I-]` displayed a kinetic solubility of 41.6 µg/mL.
With `COc1ccccc1C(=O)OCc1cc(=O)n2ccsc2n1` the figure was over 47.4 µg/mL; with `Cc1ccc(CNCCc2ccccc2F)s1`, 33.2 µg/mL (≈ 133 µM).
Take `CCCC(=O)Nc1nnc(-c2ccc3c(c2)OCCO3)o1`: the solubility (kinetic) is over 43.4 µg/mL.
Take `Cc1nn(CC(=O)NC2CCS(=O)(=O)C2)c(C)c1[N+](=O)[O-]` (stereo not given): the solubility (kinetic) is over 47.4 µg/mL.
With `Nc1nc(SCC(=O)O)[nH]c(=O)c1NC(=O)c1ccco1` the figure was over 46.5 µg/mL; with `COC(=O)c1c(NC(=O)CCC(=O)O)sc(Cc2ccccc2)c1C`, 48.7 µg/mL (≈ 135 µM).
In the case of `CCS(=O)(=O)N1CCC(C(=O)O)CC1`, the kinetic solubility was over 33.2 µg/mL.
For `Cc1cccc(CC2CC(=O)N(CCc3ccc4c(c3)OCO4)C2=O)c1` (stereo not given), the kinetic solubility came to 11.5 µg/mL (≈ 32.7 µM).
The molecule `COc1cccc(/C=C/C(=O)OCC(=O)NCCc2ccccc2)c1` displayed a kinetic solubility of 6.7 µg/mL (≈ 19.7 µM).
`COC(=O)C1(NC(=O)NC2CCCCC2)CCCCC1` yielded a solubility (kinetic) of over 42.4 µg/mL.
With `Cc1oc(-c2cc(F)cc(F)c2)nc1CN1CCSCC1` the figure was 26.3 µg/mL (≈ 84.7 µM).
For `O=C(CSc1ncnc2sccc12)NC1CCS(=O)(=O)C1` (stereo not given) the value was over 51.5 µg/mL; for `CCCCCC1CCC(C(=O)N2CCOCC2)CC1` (stereo not given), 27.7 µg/mL (≈ 104 µM).
`CC(=O)NCc1ccc(-c2nc3ccccc3s2)cc1`: the kinetic solubility stood at 8.6 µg/mL (≈ 30.5 µM).
For `CCOC1=C/C(=C/c2c(N)n3oc(C)cc3nc2=O)C=CC1=O` the value was 11.9 µg/mL (≈ 38 µM).
With `COc1ccc(C(=O)Nc2ccc(NC(=O)C3CCCCC3)nc2)cc1` the figure was 0.4 µg/mL (≈ 1.13 µM); with `O=C(COC(=O)c1ccc2c(c1)OCCO2)NCc1ccccc1Cl`, 5.2 µg/mL (≈ 14.4 µM).
Take `CCC(C(=O)Nc1ccccn1)c1ccccc1` (stereo not given): the solubility (kinetic) was over 36 µg/mL.
For `C[N+](C)(C)CCOC(=O)CCC(=O)OCC[N+](C)(C)C.O.[Cl-]` the value was over 59.6 µg/mL.
With `COCC(C)N=C1SCCN1Cc1ccccc1` (stereo not given) the figure was 35.3 µg/mL (≈ 134 µM).
With `Br.COc1ccc(C2=CSC3=NCCN23)cc1Br` the figure was 54.4 µg/mL.
`Cc1nc([N+](=O)[O-])c(C(=O)OCc2ccccc2C#N)n1C`: the solubility (kinetic) was over 45 µg/mL.
The molecule `COc1cc(/C=C2\NC(=O)NC2=O)cc(Br)c1OC` gave a solubility (kinetic) of 10.5 µg/mL (≈ 32.1 µM).
With `O=C(Nc1ccncc1)c1cccc2ccccc12` the figure was over 37.2 µg/mL.
For `Cc1cnc(C(=O)OCC(=O)N2CCC(C)CC2)cn1` the value was over 41.6 µg/mL; for `CC(C)=CC1C(C(=O)NCCOc2ccccc2)C1(C)C` (stereo not given), 17.7 µg/mL (≈ 61.6 µM).
Consider `COc1ccc(/C=C(\C#N)C(=O)NC(C)c2ccccc2)cc1O` (stereo not given), for which the kinetic solubility was found to be 18.3 µg/mL (≈ 56.8 µM). This solubility kinetic and that of the molecule before are within 1.5-fold of each other.
The molecule `O=C(c1ccc2ccccc2c1)N1CCN(Cc2ccccc2)CC1` yielded a solubility (kinetic) of over 49.6 µg/mL.
Take `S=C(NCc1ccco1)N/N=C/c1ccncc1`: the solubility (kinetic) is over 39 µg/mL.
The molecule `CCCN1C(=O)c2ccc(C(=O)Nc3cc(C)ccc3O)cc2C1=O` returned a solubility (kinetic) of 0.9 µg/mL (≈ 2.66 µM).
For `Cn1cnc([N+](=O)[O-])c1NCc1ccccc1` the value was 33.5 µg/mL (≈ 144 µM); for `Cc1ccc(C(=O)OC(C)C(=O)Nc2ccc3c(c2)OCO3)c(O)c1` (stereo not given), 9.5 µg/mL (≈ 27.7 µM); for `c1ccc(NCc2ccncc2)cc1`, over 27.6 µg/mL.
With `Br.CNc1nc2ccccc2n1CC(=O)c1ccccc1` the figure was over 51.9 µg/mL; with `O=C(COc1ccc(Br)cc1)NC1CC1`, over 40.5 µg/mL; with `O=C(Nc1ccccc1C(=O)Nc1cccnc1)c1ccccc1`, 6.3 µg/mL (≈ 19.9 µM).
With `O=C(CCl)N(CCCNC(=O)C(F)(F)F)c1ccc([N+](=O)[O-])cc1` the figure was over 55.2 µg/mL.
On to `Cc1ccc(C)c(S(=O)(=O)N2CCN(C(=O)[C@@H]3CCCN3C(=O)c3cccs3)CC2)c1`, for which the kinetic solubility was 40.4 µg/mL (≈ 87.5 µM).
With `Cc1cc(S(=O)(=O)NCCN2CCOCC2)ccc1Cl` the figure was over 47.8 µg/mL; with `CC1CC(C)CN(S(=O)(=O)CC23CCC(CC2=O)C3(C)C)C1` (stereo not given), 44.8 µg/mL (≈ 137 µM); with `S=C(Nc1ccccc1)N(Cc1ccccc1)Cc1ccncc1`, 39.2 µg/mL (≈ 118 µM).
Regarding `CCCCc1nc2cc(C(=O)N3CCC[C@H]3CO)ccc2o1`, the solubility (kinetic) is over 45.4 µg/mL.
Regarding `Cc1[nH]c2ccccc2c1C(c1ccncc1)N1CCC(C)CC1` (stereo not given), the kinetic solubility was over 47.9 µg/mL.
With `O=C(CSc1ccccn1)NCc1ccc2c(c1)OCO2` the figure was over 45.4 µg/mL.
